Source: paper PMC3344907, “Inhibitory Effects and Underlying Mechanism of 7-Hydroxyflavone Phosphate Ester in HeLa Cells” (PLoS ONE, 2012)

Tests used:
[1] = target: T1, CaM-activated PDE1 (Ca2+-CaM-phosphodiesterase 1); experiment: PDE-Glo luminescence assay of CaM-activated PDE; supported by fluorescence quenching of the CaM-Ca2+-PDE system; assay type: biochemical, Bos taurus
T1 construct: bovine brain PDE (Sigma-Aldrich P9529); with calmodulin (CaM)

[2] = target: T1, CaM-activated PDE1 (Ca2+-CaM-phosphodiesterase 1); experiment: PDE-Glo luminescence assay of CaM-activated PDE; assay type: biochemical, Bos taurus

SMILES | IC50 [1] [µM] | IC50 [2] [µM]
CCOP(=O)(OCC)Oc1ccc2c(=O)cc(-c3ccccc3)oc2c1 [FP, diethyl flavon-7-yl phosphate] | 22.3 | –
O=c1cc(-c2ccccc2)oc2cc(O)ccc12 [HF, 7-hydroxyflavone] | – | 76.7
